Data taken from ChEMBL document CHEMBL1201862, “PubChem BioAssay data set” (2004).
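Method: 48-hour compound exposure of cells in 96-well plates, five concentrations, linear interpolation of endpoints. The concentration for 50% growth inhibition is given as GI50.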 The source made the active and inactive calls. Cut-off read from the data, not from the text of the source: active = GI50 up to about 1.1 µM and inactive = higher.

Columns and labels:
Assay in all cases: NCI anticancer screen, dose series, 48 h
786-0 = tested on: 786-0
A498 = tested on: A498
A549 = tested on: A549
ACHN = tested on: ACHN
BT-549 = tested on: BT-549
CAKI-1 = tested on: CAKI-1
CCRF-CEM = tested on: CCRF-CEM
COLO 205 = tested on: COLO 205
DU-145 = tested on: DU-145
EKVX = tested on: EKVX
HCC 2998 = tested on: HCC 2998
HCT-116 = tested on: HCT-116
HCT-15 = tested on: HCT-15
HL-60 = tested on: HL-60
HOP-62 = tested on: HOP-62
HOP-92 = tested on: HOP-92
HT-29 = tested on: HT-29
Hs-578T = tested on: Hs-578T
IGROV-1 = tested on: IGROV-1
K562 = tested on: K562
KM12 = tested on: KM12
M14 = tested on: M14
MCF7 = tested on: MCF7
MDA-MB-231 = tested on: MDA-MB-231
MDA-MB-435 = tested on: MDA-MB-435
MDA-N = tested on: MDA-N
MOLT-4 = tested on: MOLT-4
Malme-3M = tested on: Malme-3M
NCI-H226 = tested on: NCI-H226
NCI-H23 = tested on: NCI-H23
NCI-H460 = tested on: NCI-H460
NCI-H522 = tested on: NCI-H522
NCI/ADR-RES = tested on: NCI/ADR-RES
OVCAR-3 = tested on: OVCAR-3
OVCAR-4 = tested on: OVCAR-4
OVCAR-5 = tested on: OVCAR-5
OVCAR-8 = tested on: OVCAR-8
PC-3 = tested on: PC-3
RPMI-8226 = tested on: RPMI-8226
RXF 393 = tested on: RXF 393
SF-268 = tested on: SF-268
SF-295 = tested on: SF-295
SF-539 = tested on: SF-539
SK-MEL-28 = tested on: SK-MEL-28
SK-MEL-2 = tested on: SK-MEL-2
SK-MEL-5 = tested on: SK-MEL-5
SK-OV-3 = tested on: SK-OV-3
SN12C = tested on: SN12C
SNB-19 = tested on: SNB-19
SNB-75 = tested on: SNB-75
SR = tested on: SR
SW-620 = tested on: SW-620
T47D = tested on: T47D
TK-10 = tested on: TK-10
U-251 = tested on: U-251
UACC-257 = tested on: UACC-257
UACC-62 = tested on: UACC-62
UO-31 = tested on: UO-31
LOX IMVI = tested on: LOX IMVI

Question: How did the GI50 (786-0) turn out when `COc1cc2c3cc1Oc1c(OC)c(OC)cc4c1C(Cc1ccc(O)c(c1)Oc1ccc(cc1)CC3N(C)CC2)CN(C)C4` (stereo not given) was run?
Answer: 10.8 µM (inactive)

Question: What about the GI50 (A498) of the same compound?
Answer: 16.9 µM (inactive)

Question: And the GI50 (A549)?
Answer: 22.5 µM (inactive)

Question: What about the GI50 (ACHN) of the same compound?
Answer: 27.4 µM (inactive)

Question: What about the GI50 (BT-549) of the same compound?
Answer: 14.8 µM (inactive)

Question: And the GI50 (CAKI-1)?
Answer: 20.2 µM (inactive)

Question: And the GI50 (CCRF-CEM)?
Answer: 2.07 µM (inactive)

Question: What about the GI50 (COLO 205) of the same compound?
Answer: 10 µM (inactive)

Question: And the GI50 (DU-145)?
Answer: 17.7 µM (inactive)

Question: And the GI50 (EKVX)?
Answer: 19 µM (inactive)

Question: What about the GI50 (HCC 2998) of the same compound?
Answer: 3.44 µM (inactive)

Question: And the GI50 (HCT-116)?
Answer: 6.05 µM (inactive)

Question: And the GI50 (HCT-15)?
Answer: 14 µM

Question: And the GI50 (HL-60)?
Answer: 1.11 µM (active)

Question: And the GI50 (HOP-62)?
Answer: 20 µM (inactive)

Question: What about the GI50 (HOP-92) of the same compound?
Answer: 16 µM (inactive)

Question: What about the GI50 (HT-29) of the same compound?
Answer: 3.24 µM (inactive)

Question: What about the GI50 (Hs-578T) of the same compound?
Answer: 15.5 µM (inactive)

Question: What about the GI50 (IGROV-1) of the same compound?
Answer: 20.5 µM (inactive)

Question: And the GI50 (K562)?
Answer: 5.22 µM (inactive)

Question: What about the GI50 (KM12) of the same compound?
Answer: 13.2 µM (inactive)

Question: And the GI50 (M14)?
Answer: 4.1 µM (inactive)

Question: What about the GI50 (MCF7) of the same compound?
Answer: 16.4 µM (inactive)

Question: And the GI50 (MDA-MB-231)?
Answer: 12.2 µM (inactive)

Question: What about the GI50 (MDA-MB-435) of the same compound?
Answer: 11.5 µM (inactive)

Question: What about the GI50 (MDA-N) of the same compound?
Answer: 12.2 µM (inactive)

Question: What about the GI50 (MOLT-4) of the same compound?
Answer: 7.31 µM (inactive)

Question: And the GI50 (Malme-3M)?
Answer: 16.8 µM (inactive)

Question: What about the GI50 (NCI-H226) of the same compound?
Answer: 28.7 µM (inactive)

Question: What about the GI50 (NCI-H23) of the same compound?
Answer: 16.9 µM (inactive)

Question: What about the GI50 (NCI-H460) of the same compound?
Answer: 16 µM (inactive)

Question: And the GI50 (NCI-H522)?
Answer: 12.5 µM (inactive)

Question: And the GI50 (NCI/ADR-RES)?
Answer: 19.3 µM (inactive)

Question: What about the GI50 (OVCAR-3) of the same compound?
Answer: 15 µM (inactive)

Question: And the GI50 (OVCAR-4)?
Answer: 17.6 µM (inactive)

Question: And the GI50 (OVCAR-5)?
Answer: 21.5 µM (inactive)

Question: What about the GI50 (OVCAR-8) of the same compound?
Answer: 15 µM (inactive)

Question: What about the GI50 (PC-3) of the same compound?
Answer: 21.1 µM (inactive)

Question: And the GI50 (RPMI-8226)?
Answer: 13 µM (inactive)

Question: What about the GI50 (RXF 393) of the same compound?
Answer: 10.6 µM (inactive)

Question: What about the GI50 (SF-268) of the same compound?
Answer: 20.4 µM (inactive)

Question: And the GI50 (SF-295)?
Answer: 17.9 µM (inactive)

Question: And the GI50 (SF-539)?
Answer: 12.9 µM (inactive)

Question: What about the GI50 (SK-MEL-28) of the same compound?
Answer: 16.8 µM (inactive)

Question: What about the GI50 (SK-MEL-2) of the same compound?
Answer: 18.3 µM (inactive)

Question: And the GI50 (SK-MEL-5)?
Answer: 13.5 µM (inactive)

Question: What about the GI50 (SK-OV-3) of the same compound?
Answer: 23.4 µM (inactive)

Question: And the GI50 (SN12C)?
Answer: 15.8 µM (inactive)

Question: And the GI50 (SNB-19)?
Answer: 24.3 µM (inactive)

Question: What about the GI50 (SNB-75) of the same compound?
Answer: 14.2 µM (inactive)

Question: What about the GI50 (SR) of the same compound?
Answer: 6.14 µM (inactive)

Question: What about the GI50 (SW-620) of the same compound?
Answer: 12.9 µM (inactive)

Question: What about the GI50 (T47D) of the same compound?
Answer: 22.1 µM (inactive)

Question: And the GI50 (TK-10)?
Answer: 16.1 µM (inactive)

Question: What about the GI50 (U-251) of the same compound?
Answer: 12.3 µM (inactive)

Question: And the GI50 (UACC-257)?
Answer: 13.5 µM (inactive)

Question: And the GI50 (UACC-62)?
Answer: 18.1 µM (inactive)

Question: And the GI50 (UO-31)?
Answer: 16.1 µM (inactive)

Question: How did the GI50 (786-0) turn out when `C=C(CCC(C(=O)O)C1CCC2(C)C3=C(CCC12C)C1(C)CCC(O)C(C)(C)C1CC3)C(C)C` (stereo not given) was run?
Answer: 45.1 µM (inactive)

Question: And the GI50 (A498)?
Answer: 29.9 µM (inactive)

Question: What about the GI50 (A549) of the same compound?
Answer: 17.1 µM (inactive)

Question: What about the GI50 (ACHN) of the same compound?
Answer: 44.7 µM (inactive)

Question: And the GI50 (BT-549)?
Answer: 83.6 µM (inactive)

Question: What about the GI50 (CAKI-1) of the same compound?
Answer: > 100 µM (inactive)

Question: And the GI50 (CCRF-CEM)?
Answer: > 10 µM (inactive)

Question: And the GI50 (COLO 205)?
Answer: > 100 µM (inactive)

Question: What about the GI50 (DU-145) of the same compound?
Answer: > 100 µM (inactive)

Question: What about the GI50 (EKVX) of the same compound?
Answer: 27.5 µM (inactive)

Question: And the GI50 (HCC 2998)?
Answer: 81.7 µM (inactive)

Question: And the GI50 (HCT-116)?
Answer: 28.6 µM (inactive)

Question: And the GI50 (HCT-15)?
Answer: 21.8 µM

Question: What about the GI50 (HL-60) of the same compound?
Answer: > 10 µM (inactive)

Question: What about the GI50 (HOP-62) of the same compound?
Answer: 8.91 µM (inactive)

Question: And the GI50 (HOP-92)?
Answer: 60.8 µM (inactive)

Question: What about the GI50 (HT-29) of the same compound?
Answer: 32.7 µM (inactive)

Question: And the GI50 (Hs-578T)?
Answer: 77.8 µM (inactive)

Question: And the GI50 (IGROV-1)?
Answer: 22.3 µM (inactive)

Question: What about the GI50 (K562) of the same compound?
Answer: 14.2 µM (inactive)

Question: What about the GI50 (KM12) of the same compound?
Answer: 6.38 µM (inactive)

Question: What about the GI50 (LOX IMVI) of the same compound?
Answer: 22 µM (inactive)

Question: And the GI50 (M14)?
Answer: 40.8 µM (inactive)

Question: And the GI50 (MCF7)?
Answer: 60.7 µM (inactive)

Question: And the GI50 (MDA-MB-231)?
Answer: 71 µM (inactive)

Question: And the GI50 (MDA-MB-435)?
Answer: > 100 µM (inactive)

Question: And the GI50 (MDA-N)?
Answer: 86.7 µM (inactive)

Question: And the GI50 (MOLT-4)?
Answer: 26.9 µM (inactive)

Question: What about the GI50 (NCI-H226) of the same compound?
Answer: 30.2 µM (inactive)

Question: What about the GI50 (NCI-H23) of the same compound?
Answer: 29.6 µM (inactive)

Question: What about the GI50 (NCI-H460) of the same compound?
Answer: 21.1 µM (inactive)

Question: What about the GI50 (NCI-H522) of the same compound?
Answer: 16.6 µM (inactive)

Question: And the GI50 (NCI/ADR-RES)?
Answer: 19.3 µM (inactive)

Question: And the GI50 (OVCAR-3)?
Answer: 45.6 µM (inactive)

Question: What about the GI50 (OVCAR-4) of the same compound?
Answer: 43.1 µM (inactive)

Question: What about the GI50 (OVCAR-5) of the same compound?
Answer: > 100 µM (inactive)

Question: And the GI50 (OVCAR-8)?
Answer: 19.1 µM (inactive)

Question: And the GI50 (PC-3)?
Answer: 77.8 µM (inactive)

Question: And the GI50 (RPMI-8226)?
Answer: 19.9 µM (inactive)

Question: And the GI50 (SF-268)?
Answer: 34.4 µM (inactive)

Question: What about the GI50 (SF-295) of the same compound?
Answer: 38.5 µM (inactive)

Question: What about the GI50 (SF-539) of the same compound?
Answer: > 100 µM (inactive)

Question: And the GI50 (SK-MEL-28)?
Answer: 33.3 µM (inactive)

Question: What about the GI50 (SK-MEL-2) of the same compound?
Answer: 52 µM (inactive)

Question: And the GI50 (SK-MEL-5)?
Answer: 33.7 µM (inactive)

Question: And the GI50 (SK-OV-3)?
Answer: > 100 µM (inactive)

Question: And the GI50 (SN12C)?
Answer: 44.6 µM (inactive)

Question: What about the GI50 (SNB-19) of the same compound?
Answer: > 100 µM (inactive)

Question: And the GI50 (SNB-75)?
Answer: 58.9 µM (inactive)

Question: And the GI50 (SR)?
Answer: 12.1 µM (inactive)

Question: What about the GI50 (SW-620) of the same compound?
Answer: 50.9 µM (inactive)

Question: What about the GI50 (T47D) of the same compound?
Answer: 58.1 µM (inactive)

Question: What about the GI50 (TK-10) of the same compound?
Answer: > 100 µM (inactive)

Question: And the GI50 (U-251)?
Answer: 22 µM (inactive)

Question: What about the GI50 (UACC-257) of the same compound?
Answer: 97.5 µM (inactive)

Question: What about the GI50 (UACC-62) of the same compound?
Answer: 34.9 µM (inactive)

Question: What about the GI50 (UO-31) of the same compound?
Answer: > 100 µM (inactive)
